Results published in patent US4859664A, “Derivatives of 2,3,4,5,6,7-hexahydro-2,7-methano-1,5-benzoxazonines and -1,4-benzoxazonines, processes for their production and their use as pharmaceuticals” (priority 1986, dated 1989).

Legend:
Assay type in all cases: in vivo, male NMRI mice
[1] = tonus reduction on striated musculature
Protocol: For the pharmacological investigations described in the following, there were used male NMRI mice with a weight of from 15 to 30 g. The animals were kept under usual laboratory conditions, randomised and subjected to a light-dark change with a 12 hour rhythm. They were given a standard feed and water ad libitum up to the commencement of the experiments.
(§1) The test compounds were administered in a volume of 10 ml./kg./body weight per mouse. As carrier, there was used physiological sodium chloride solution or a suspension of 0.5% tragacanth in physiological sodium chloride solution.
6. Tonus reduction on striated musculature.
The test used is described by J. P. Chambon et al. (Arzneimittelforschung (Drug Research), 35 (II), (10), 1572/1985).
5 animals per dosage group were placed with their front paws on a horizontal metal rod (diameter 3 mm., length 20 cm.) which was fixed 30 cm. above a laboratory bench. Mice with normal muscle tonus climbed within 5 seconds on to the rod with at least one rear paw.
40, 80 and 120 minutes after the subcutaneous administration of the test compound, the animals were again tested for this ability and the number of incapable animals was recorded.

[2] = influencing of the amphetamine group toxicity
Protocol: (§2) […]. They were given a standard feed and water ad libitum up to the commencement of the experiments.
as §1
3. Influencing of the amphetamine group toxicity.
There was investigated the influence of the test compounds on the mortality of amphetamine-treated, aggregated mice. The dosaging of d-amphetamine was 15 mg./kg., which should permit the recognition not only of a synergism but also of an antagonism towards a sympathomimetic compound. Carrying out the experiment:
30 minutes after the subcutaneous administration of the test substance, the animals received subcutaneously 15 mg./kg. of d-amphetamine sulphate. The number of dead animals was recorded after 2, 4 and 7 hours. For the maintenance of the group size, the dead animals were replaced by untreated animals (6 animals/dosage group).

[3] = influencing of hexobarbital narcosis; details: for period of narcosis ± SEM: hexobarbital sodium 100 mg./kg. i.p.
Protocol: as §2, §1
The experimental results are given as average values with a mean error of the average value (x±S.E.M.). The ED50 values were calculated according to Litchfield and Wilcoxon (J. Pharmacol. Exp. Ther., 96, 99/1949). The compounds were thereby tested in 4 dosages (p≤0.5).
4. Influencing of hexobarbital narcosis.
The test compounds were administered subcutaneously to 5 animals per dosage group. After 30 minutes, 100 mg./kg. hexobarbital sodium was administered intraperitoneally. 2 to 3 minutes after this injection, the animals allowed themselves to be laid on their backs. For each animal, there was measured the time in minutes from the commencement of the back position up to the time when the animals themselves twice successively again assumed the abdominal position.

[4] = 25 mg/kg s.c. + d-amphetamine sulphate 15 mg./kg. s.c.
[5] = 50 mg/kg s.c. + d-amphetamine sulphate 15 mg./kg. s.c.

SMILES | muscle-relaxing action ([1]; 25 mg./kg. s.c.) [%] | muscle-relaxing action ([1]; 50 mg./kg. s.c.) [%] | % of deceased animals after 2 hrs. [2, 4] [%] | % of deceased animals after 4 hrs. [2, 4] [%] | % of deceased animals after 7 hrs. [2, 4] [%] | % of deceased animals, total [2, 4] [%] | % of deceased animals after 2 hrs. [2, 5] [%] | % of deceased animals after 4 hrs. [2, 5] [%] | % of deceased animals after 7 hrs. [2, 5] [%] | % of deceased animals, total [2, 5] [%] | change with regard to hexabarbital sodium ([3]; 25 mg/kg sc) [min] | period of narcosis ± SEM ([3]; 25 mg/kg sc) [min] | effect on period of narcosis ([3]; 50 mg./kg.) | change with regard to hexabarbital sodium ([3]; 50 mg/kg sc) [min] | period of narcosis ± SEM ([3]; 50 mg/kg sc) [min]
CC12CCNCC(C1)c1ccccc1O2 (stereo not shown) [Example 6, 2,3,4,5,6,7-hexahydro-2-methyl-2,7-methano-1,5-benzoxazonine] | 13 | 20 | 0 | 0 | 16.7 | 16.7 | 0 | 16.7 | 0 | 16.7 |  |  |  |  | 
CC1NCCC2(C)CC1c1ccccc1O2 (stereo not shown) [Example 9, 2,3,4,5,6,7-hexahydro-2,6-dimethyl-2,7-methano-1,5-benzoxazonine] | 13 | 20 | 16.7 | 0 | 0 | 16.7 | 0 | 0 | 33.3 | 33.3 | -29.4 | 63 ± 21.0 | statistically verified shortening of the period of narcosis | -53.4 | 39 ± 12.4
